Measured values as given in patent US20110009411A1, “THERAPEUTIC COMPOSITIONS AND THE USE THEREOF” (Gilead Sciences ,Inc., priority 2007, published 2011).

Assay: Steady-state pharmacokinetic interaction study of the Compound and lopinavir/r (LPV/r)
Assay type: in vivo, human
Settings: healthy volunteers
[1] = the Compound 125 mg QD + LPV/r 400/100 mg BID vs the Compound/r 125/100 mg QD (coadministration:alone), 14-day periods, n = 14

exposures when coadministered with the Compound (steady state)	Compound exposures upon coadministration with LPV/r (steady state)	AUCtau % GMR (90% CI) [1] [%]	Cmax % GMR (90% CI) [1] [%]	Ctau % GMR (90% CI) [1] [%]	SMILES	LPV trough concentrations when coadministered with the Compound (steady state)
unaltered	–	–	–	–	Cc1cccc(C)c1OCC(=O)N[C@@H](Cc1ccccc1)[C@@H](O)C[C@H](Cc1ccccc1)NC(=O)[C@H](C(C)C)N1CCCNC1=O [LPV, (2S)—N-[(2S,4S,5S)-5-{[2-(2,6-dimethyl-phenoxy)acetyl]amino}-4-hydroxy-1,6-diphenyl-hexan-2-yl]-3-methyl-2-(2-oxo-1,3-diazinan-1-yl)butanamide, reference compound]	maintained above recommended target troughs
unaltered	–	–	–	–	CC(C)c1nc(CN(C)C(=O)NC(C(=O)NC(Cc2ccccc2)CC(O)C(Cc2ccccc2)NC(=O)OCc2cncs2)C(C)C)cs1 (stereo not shown) [RTV, 1,3-thiazol-5-ylmethyl[3-hydroxy-5-[3-methyl-2-[methyl-[(2-propan-2-yl-1,3-thiazol-4-yl)methyl]carbamoyl]amino-butanoyl]amino-1,6-diphenyl-hexan-2-yl]aminoformate, reference compound]	–
–	substantially elevated	175	152	238	COc1cc2c(cc1Cc1cccc(Cl)c1F)c(=O)c(C(=O)O)cn2[C@H](CO)C(C)C [the Compound, 6-(3-chloro-2-fluorobenzyl)-1-[(2S)-1-hydroxy-3-methylbutan-2-yl]-7-methoxy-4-oxo-1,4-dihydroquinoline-3-carboxylic acid]	–
